Results reported in patent US10091997B2, “Composition for inhibition of insect host sensing” (Vanderbilt University, priority 2010, dated 2018).

Assays:
[1] = system: AgORco+AgOR10; test: whole-cell patch clamp, HEK293 cells expressing AgORco+AgOR10; format: cell-based, Anopheles gambiae; details: for whole-cell currents: AgORco+AgOR10 cells, clamped at −60 mV
Experimental: (§1) Currents from OR-expressing HEK293 cells were amplified with an Axopatch 200b Amplifier (Axon Instruments) and digitized through a Digidata 1322A (Axon Instruments). Electrophysiological data was recorded and analyzed using pCLAMP 10 (Axon Instruments). Electrodes were fabricated from quartz tubing (Sutter Instruments) and pulled to 4-6 MΩ for whole cell recording. Electrodes were filled with internal solution (120 mM KCl, 30 mM D-glucose, 10 mM HEPES, 2 mM MgCl2, 1.1 mM EGTA, and 0.1 CaCl2 (pH 7.35, 280 mOsm). External (bath) solution contained 130 mM NaCl, 34 mM D-glucose, 10 mM HEPES, 1.5 mM CaCl2, 1.3 mM KH2PO4, and 0.5 MgSO4 (pH 7.35, 300 mOsm). Compounds were diluted in external solution and locally perfused to the recording cell using Perfusion Pencil (Automate Scientific) and controlled by a ValveLink 8.2 controller (Automate Scientific). Whole cell recordings were sampled at 10 kHz and filtered at 5 kHz. Outside-out patches were obtained using 10-15MΩ electrodes pulled from standard glass capillaries (World Precision Instruments) and fire-polished with an MF-830 micro forge (Narishige). Single channel recordings were sampled at 20 kHz. Recordings were reduced to 1 kHz and low-pass filtered at 500 Hz for display and analysis using QuB (SUNY at Buffalo).
(§2) To test the hypothesis that VUAA1 directly agonized AgORco, whole-cell patch clamp responses were examined in AgORco+AgOR10 expressing cells as well HEK293 cells stably expressing AgORco alone. […] The VUAA1-dependent currents in AgORco+AgOR10 cells resembled those resulting from application of benzaldehyde, an orthosteric agonist of AgOR10 (FIG. 3C) (Wang, 2010; Carey, 2010). AgORco+AgOR10 cells were more sensitive to VUAA1 than AgORco cells, producing inward currents at −5.0 log M, a concentration at which AgORco had no response. […] To investigate the specificity of VUAA1 agonism, the inventors transiently transfected HEK cells with the AgORco orthologs of Drosophila melanogaster and Heliothis virescens, DmOR83b and HvOR2 respectively.

[2] = molecular target: T1, AgORco (Anopheles gambiae, UniProt Q7QCC7); test: whole-cell patch clamp, HEK293 cells stably expressing AgORco alone; format: cell-based; details: for whole-cell currents: AgORco alone cells, clamped at −60 mV
T1 construct: expressed in transfected cells
T1 sequence (Q7QCC7 1-478): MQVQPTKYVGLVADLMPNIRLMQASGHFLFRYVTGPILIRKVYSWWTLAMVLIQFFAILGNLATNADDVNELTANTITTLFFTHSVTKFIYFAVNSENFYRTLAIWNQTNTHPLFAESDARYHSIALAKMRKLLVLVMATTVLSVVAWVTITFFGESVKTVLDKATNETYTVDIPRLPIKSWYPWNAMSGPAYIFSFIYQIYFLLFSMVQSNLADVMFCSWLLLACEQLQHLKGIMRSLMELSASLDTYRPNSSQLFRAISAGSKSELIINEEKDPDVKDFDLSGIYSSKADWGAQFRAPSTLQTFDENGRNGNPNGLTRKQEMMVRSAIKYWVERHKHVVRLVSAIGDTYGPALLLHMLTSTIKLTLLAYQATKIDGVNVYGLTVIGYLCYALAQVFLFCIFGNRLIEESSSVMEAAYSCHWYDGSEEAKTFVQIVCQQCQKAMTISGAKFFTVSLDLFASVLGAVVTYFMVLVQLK
Experimental: as §1, §2

[3] = molecular target: T2, rat transient receptor potential vanilloid 1 (rTRPV1) (Rattus norvegicus, UniProt O35433); test: whole-cell patch clamp, HEK cells stably expressing rTRPV1; format: cell-based
T2 construct: expressed in transfected cells
T2 sequence (O35433 whole entry): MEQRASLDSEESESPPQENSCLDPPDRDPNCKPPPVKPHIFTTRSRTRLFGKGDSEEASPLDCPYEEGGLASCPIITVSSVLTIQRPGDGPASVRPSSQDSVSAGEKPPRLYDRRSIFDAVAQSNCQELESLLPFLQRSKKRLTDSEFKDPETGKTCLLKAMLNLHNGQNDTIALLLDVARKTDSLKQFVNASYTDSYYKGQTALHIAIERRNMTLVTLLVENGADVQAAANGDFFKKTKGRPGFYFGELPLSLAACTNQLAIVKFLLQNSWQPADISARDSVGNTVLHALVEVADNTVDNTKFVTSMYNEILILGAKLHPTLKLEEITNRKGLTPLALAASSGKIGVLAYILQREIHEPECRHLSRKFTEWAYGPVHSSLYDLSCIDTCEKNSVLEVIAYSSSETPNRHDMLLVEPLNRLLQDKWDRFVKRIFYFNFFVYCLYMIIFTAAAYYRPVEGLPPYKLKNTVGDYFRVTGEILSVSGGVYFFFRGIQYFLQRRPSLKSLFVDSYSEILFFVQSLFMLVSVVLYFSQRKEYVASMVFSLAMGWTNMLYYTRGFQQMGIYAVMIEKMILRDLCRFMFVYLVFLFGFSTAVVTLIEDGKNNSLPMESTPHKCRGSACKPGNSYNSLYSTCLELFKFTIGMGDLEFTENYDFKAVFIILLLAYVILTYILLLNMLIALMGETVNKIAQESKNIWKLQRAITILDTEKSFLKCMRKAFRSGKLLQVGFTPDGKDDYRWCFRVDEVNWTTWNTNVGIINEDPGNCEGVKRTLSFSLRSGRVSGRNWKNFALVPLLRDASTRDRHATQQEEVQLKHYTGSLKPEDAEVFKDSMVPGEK
Excerpt: To determine the broad-spectrum specificity of VUAA1, the inventors tested VUAA1 on another non-selective cation channel, transient receptor potential vanilloid receptor 1 (TRPV1) (Caterina, 1997; Bohlen, 2010).

[4] = system: Un-transfected HEK293 cells; test: whole-cell patch clamp, control HEK293 cells (un-transfected or GFP alone); format: cell-based, human
Experimental: as §1

Structure (SMILES) | whole-cell currents [1] | whole-cell currents [2] | also measured
Nc1ncnc2c1nc(Br)n2[C@@H]1O[C@@H]2COP(=O)(O)O[C@H]2[C@H]1O [8-Br cAMP] | unable to evoke whole-cell currents | unable to evoke whole-cell currents | –
Nc1nc2c(nc(Br)n2[C@@H]2O[C@@H]3COP(=O)(O)O[C@H]3[C@H]2O)c(=O)[nH]1 [8-Br cGMP] | unable to evoke whole-cell currents | unable to evoke whole-cell currents | –
COc1cc(CNC(=O)CCCC/C=C/C(C)C)ccc1O [Capsaicin, reference compound] | – | – | whole-cell currents [3]: elicited a robust response
N.N.N.N.N.N.N.N.N.N.N.N.N.N.[Cl-].[Cl-].[Cl-].[Cl-].[Cl-].[Cl-].[O-2].[O-2].[Ru+3].[Ru+3].[Ru+4] [RR, ruthenium red] | – | – | reduction of VUAA1-elicited currents ([1]; AgOrco+AgOR10 cells, agonist VUAA1): 68.3±2.8%; reduction of benzaldehyde-elicited currents ([1]; AgOrco+AgOR10 cells, agonist benzaldehyde): 87.8±1.8%; reduction of VUAA1 responses ([2]; AgORco cells, agonist VUAA1): 79.4±4.0%
O=Cc1ccccc1 [benzaldehyde, reference compound] | concentration-dependent responses | only AgORco+AgOR10 cells responded to BA | whole-cell currents in GFP alone cells ([4]; HEK cells transfected with GFP alone): no currents; whole-cell currents in control cells ([4]; control / un-transfected HEK293 cells): did not respond
